US10428087B2, “Pyrimidinones as PI3K inhibitors” (Incyte Corporation, priority 2009, dated 2019)
Counter-ions that a name gives are not always drawn.

Test system: Pfeiffer cell line (diffuse large B cell lymphoma)
Experiment: Pfeiffer cell proliferation assay (Example B2)
Assay type: cell-based
Conditions: Homo sapiens, Pfeiffer, Pfeiffer cells, [3H]-thymidine
Method: Pfeiffer cell line (diffuse large B cell lymphoma) was purchased from ATCC (Manassas, Va.) and maintained in the culture medium recommended (RPMI and 10% FBS). To measure the anti-proliferation activity of the PI3Kδ submittals, the Pfeiffer cells were plated with the culture medium (2×10^3 cells/well/per 200 μl) into 96-well ultra-low binding plates (Corning, Corning, N.Y.), in the presence or absence of a concentration range of test compounds. After 3-4 days, [^3H]-thymidine (1 μCi/well) (PerkinElmer, Boston, Mass.) in PBS was then added to the cell culture for an additional 12 hrs before the incorporated radioactivity was separated by filtration with water through GF/B filters (Packard Bioscience, Meridenj, Conn.) and measured by liquid scintillation counting with a TopCount (Packard Bioscience). See Table 3 for data related to compounds of the invention.

SMILES | IC50 [nM]
Cc1csc2nc(C(C)Nc3ncnc4[nH]cnc34)c(-c3ccccc3F)c(=O)n12 (centres unmarked) [Example 40, 6-(2-fluorophenyl)-3-methyl-7-[1-(9H-purin-6-ylamino)ethyl]-5H-[1,3]thiazolo[3,2-a]pyrimidin-5-one trifluoroacetic acid salt] | 50 to 100
CCc1cccc2nc(C(C)Nc3ncnc4[nH]cnc34)c(-c3cc(F)cc(F)c3)c(=O)n12 (centres unmarked) [Example 76, 3-(3,5-Difluorophenyl)-6-ethyl-2-[1-(9H-purin-6-ylamino)ethyl]-4H-pyrido[1,2-a]pyrimidin-4-one trifluoroacetic acid salt] | 100 to 500
Cc1cccc2nc(C(C)Nc3nc(N)nc4[nH]cnc34)c(-c3cccc(C#N)c3)c(=O)n12 (centres unmarked) [Example 84, 3-(2-{1-[(2-Amino-9H-purin-6-yl)amino]ethyl}-6-methyl-4-oxo-4H-pyrido[1,2-a]pyrimidin-3-yl)benzonitrile trifluoroacetic acid salt] | 100 to 500
Cc1cccc2nc(C(C)Nc3nc(N)nc4[nH]cnc34)c(-c3ccccc3Cl)c(=O)n12 (centres unmarked) [Example 58, 2-{1-[(2-Amino-9H-purin-6-yl)amino]ethyl}-3-(2-chlorophenyl)-6-methyl-4H-pyrido[1,2-a]pyrimidin-4-one trifluoroacetic acid salt] | < 50
Cc1ccccc1-c1c(C(C)Nc2ncnc3[nH]cnc23)nc2cccc(C)n2c1=O (centres unmarked) [Example 63, 6-Methyl-3-(2-methylphenyl)-2-[1-(9H-purin-6-ylamino)ethyl]-4H-pyrido[1,2-a]pyrimidin-4-one trifluoroacetic acid salt] | 100 to 500
Cc1csc2nc(C(C)Nc3ncnc4[nH]cnc34)c(-c3ccc(F)cc3)c(=O)n12 (centres unmarked) [Example 22, 6-(4-fluorophenyl)-3-methyl-7-[1-(9H-purin-6-ylamino)ethyl]-5H-[1,3]thiazolo[3,2-a]pyrimidin-5-one trifluoroacetic acid salt] | 100 to 500
COc1cccc(-c2c(C(C)Nc3ncnc4[nH]cnc34)nc3cccc(C)n3c2=O)c1 (centres unmarked) [Example 65, 3-(3-Methoxyphenyl)-6-methyl-2-[1-(9H-purin-6-ylamino)ethyl]-4H-pyrido[1,2-a]pyrimidin-4-one trifluoroacetic acid salt] | 50 to 100
Cc1csc2nc(C(C)Nc3ncnc4[nH]cnc34)c(-c3cccc(Cl)c3)c(=O)n12 (centres unmarked) [Example 36, 6-(3-chlorophenyl)-3-methyl-7-[1-(9H-purin-6-ylamino)ethyl]-5H-[1,3]thiazolo[3,2-a]pyrimidin-5-one trifluoroacetic acid salt] | 50 to 100
Cc1cccc2nc(C(C)Nc3nc(N)nc4[nH]cnc34)c(-c3cccc(Cl)c3)c(=O)n12 (centres unmarked) [Example 54, 2-{1-[(2-Amino-9H-purin-6-yl)amino]ethyl}-3-(3-chlorophenyl)-6-methyl-4H-pyrido[1,2-a]pyrimidin-4-one trifluoroacetic acid salt] | 50 to 100
Cc1csc2nc(C(C)Nc3ncnc4[nH]cnc34)c(-c3cc(F)ccc3F)c(=O)n12 (centres unmarked) [Example 45, 6-(2,5-difluorophenyl)-3-methyl-7-[1-(9H-purin-6-ylamino)ethyl]-5H-[1,3]thiazolo[3,2-a]pyrimidin-5-one trifluoroacetic acid salt] | 50 to 100
CC(Nc1ncnc2[nH]cnc12)c1nc2sccn2c(=O)c1-c1cc(F)cc(F)c1 (centres unmarked) [Example 25, 6-(3,5-difluorophenyl)-7-[1-(9H-purin-6-ylamino)ethyl]-5H-[1,3]thiazolo[3,2-a]pyrimidin-5-one] | 500 to 1000
Cc1cccc2nc(C(C)Nc3ncnc4[nH]cnc34)c(-c3ccccc3F)c(=O)n12 (centres unmarked) [Example 59, 3-(2-Fluorophenyl)-6-methyl-2-[1-(9H-purin-6-ylamino)ethyl]-4H-pyrido[1,2-a]pyrimidin-4-one trifluoroacetic acid salt] | 100 to 500
Cc1csc2nc([C@H](C)Nc3ccnc4[nH]cnc34)c(-c3cccc(F)c3)c(=O)n12 [Example 46, 6-(3-Fluorophenyl)-7-[(1S)-1-(3H-imidazo[4,5-b]pyridin-7-ylamino)ethyl]-3-methyl-5H-[1,3]thiazolo[3,2-a]pyrimidin-5-one] | < 50
Cc1cccc2nc(C(C)Nc3ncnc4[nH]cnc34)c(-c3cc(F)ccc3F)c(=O)n12 (centres unmarked) [Example 67, 3-(2,5-Difluorophenyl)-6-methyl-2-[1-(9H-purin-6-ylamino)ethyl]-4H-pyrido[1,2-a]pyrimidin-4-one trifluoroacetic acid salt] | 50 to 100
Cc1cccc2nc(C(C)Nc3ncnc4[nH]cnc34)c(-c3cc(F)cc(F)c3)c(=O)n12 (centres unmarked) [Example 69, 3-(3,5-Difluorophenyl)-6-methyl-2-[1-(9H-purin-6-ylamino)ethyl]-4H-pyrido[1,2-a]pyrimidin-4-one trifluoroacetic acid salt] | 50 to 100
Cc1cccc(-c2c(C(C)Nc3ncnc4[nH]cnc34)nc3cccc(C)n3c2=O)c1 (centres unmarked) [Example 51, 6-Methyl-3-(3-methylphenyl)-2-[1-(9H-purin-6-ylamino)ethyl]-4H-pyrido[1,2-a]pyrimidin-4-one trifluoroacetic acid salt] | 100 to 500
Cc1ccc(-c2c(C(C)Nc3ncnc4[nH]cnc34)nc3scc(C)n3c2=O)cc1 (centres unmarked) [Example 31, 3-methyl-6-(4-methylphenyl)-7-[1-(9H-purin-6-ylamino)ethyl]-5H-[1,3]thiazolo[3,2-a]pyrimidin-5-one trifluoroacetic acid salt] | 100 to 500
Cc1csc2nc(C(C)Nc3ncnc4[nH]cnc34)c(-c3cc(F)cc(Cl)c3)c(=O)n12 (centres unmarked) [Example 37, 6-(3-chloro-5-fluorophenyl)-3-methyl-7-[1-(9H-purin-6-ylamino)ethyl]-5H-[1,3]thiazolo[3,2-a]pyrimidin-5-one trifluoroacetic acid salt] | 50 to 100
Cc1cccc2nc(C(C)Nc3ncnc4[nH]cnc34)c(-c3cccc(C#N)c3)c(=O)n12 (centres unmarked) [Example 83, 3-{6-Methyl-4-oxo-2-[1-(9H-purin-6-ylamino)ethyl]-4H-pyrido[1,2-a]pyrimidin-3-yl}benzonitrile trifluoroacetic acid salt] | 100 to 500
CCc1cccc2nc(C(C)Nc3nc(N)nc4[nH]cnc34)c(-c3cc(F)cc(F)c3)c(=O)n12 (centres unmarked) [Example 77, 2-{1-[(2-Amino-9H-purin-6-yl)amino]ethyl}-3-(3,5-difluorophenyl)-6-ethyl-4H-pyrido[1,2-a]pyrimidin-4-one trifluoroacetic acid salt] | < 50
Cc1csc2nc(C(C)Nc3ncnc4[nH]cnc34)c(-c3nccs3)c(=O)n12 (centres unmarked) [Example 20, 3-methyl-7-[1-(9H-purin-6-ylamino)ethyl]-6-(1,3-thiazol-2-yl)-5H-[1,3]thiazolo[3,2-a]pyrimidin-5-one trifluoroacetic acid salt] | 50 to 100
Cc1csc2nc(C(C)Nc3ncnc4[nH]cnc34)c(-c3ccccn3)c(=O)n12 (centres unmarked) [Example 14, 3-methyl-7-[1-(9H-purin-6-ylamino)ethyl]-6-pyridin-2-yl-5H-[1,3]thiazolo[3,2-a]pyrimidin-5-one] | > 1000
CC(Nc1nc(N)nc2[nH]cnc12)c1nc2ccccn2c(=O)c1-c1cc(F)cc(F)c1 (centres unmarked) [Example 80, 2-{1-[(2-Amino-9H-purin-6-yl)amino]ethyl}-3-(3,5-difluorophenyl)-4H-pyrido[1,2-a]pyrimidin-4-one trifluoroacetic acid salt] | 100 to 500
